Experimental data reported in PubChem BioAssay (NCI).
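Where inhibition never reached the appropriate level, the endpoint shown equals the highest concentration tested. Otherwise, values were interpolated linearly from a five-concentration, 48-hour dose response in 96-well plates. GI50 marks 50% less growth. TGI: total growth inhibition.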

Tests used:
Assay in all cases: inhibition of tumour cell growth, NCI panel, 48 h
[1] = tested on: MDA-MB-231 breast
[2] = tested on: OVCAR-5 ovarian
[3] = tested on: UO-31 renal
[4] = tested on: SF-539 CNS
[5] = tested on: MALME-3M melanoma
[6] = tested on: SF-295 CNS
[7] = tested on: RXF 393 renal
[8] = tested on: HOP-62 NSCLC
[9] = tested on: UACC-62 melanoma
[10] = tested on: OVCAR-8 ovarian

Row | SMILES | GI50 [1] [µM] | TGI [1] [µM] | GI50 [2] [µM] | TGI [2] [µM] | GI50 [3] [µM] | TGI [3] [µM] | GI50 [4] [µM] | TGI [4] [µM] | GI50 [5] [µM] | TGI [5] [µM] | GI50 [6] [µM] | TGI [6] [µM] | GI50 [7] [µM] | TGI [7] [µM] | TGI [8] [µM] | TGI [9] [µM] | TGI [10] [µM] | GI50 [8] [µM] | GI50 [10] [µM]
1 | Brc1ccc2[nH]cc(-c3nc(-c4c[nH]c5ccncc45)cs3)c2c1 | 1.52 | 2.95 | 1.79 | 3.21 | 1.47 | 2.8 | 1.72 | 3.11 | 2.14 | 3.72 | 1.71 | 3.14 | 1.49 | 2.87 | – | – | – | – | –
2 | C#Cc1ccccc1C(=O)OC | – | – | – | > 100 | – | > 100 | – | > 100 | – | > 100 | – | > 100 | – | > 100 | > 100 | > 100 | > 100 | – | –
3 | CC1Oc2c(c(O)cc3oc(=O)cc(-c4ccccc4)c23)C(=O)C1C (configuration not stated) | – | – | – | – | – | > 100 | – | > 100 | – | > 100 | – | > 100 | – | – | – | > 100 | > 100 | – | –
4 | Cn1c(=O)c2[nH]cnc2n(C)c1=O | – | > 100 | – | > 100 | – | > 100 | – | – | – | > 100 | – | – | – | – | > 100 | – | > 100 | – | –
5 | O=C(O)C1(Cc2ccc3c(c2)CCC3)Cc2cc3c(cc2C1)CCC3 | – | – | – | > 100 | – | > 100 | – | > 100 | – | > 100 | – | – | – | – | – | > 100 | > 100 | – | –
6 | C=C1C[C@]23CC[C@@H]4C(CO)(CO)CC(=O)C[C@]4(C)[C@@H]2C(O)C[C@H]1C3 (some centres not stated) | – | > 100 | – | > 100 | – | > 100 | – | > 100 | – | > 100 | – | > 100 | – | – | > 100 | > 100 | > 100 | – | –
7 | Cc1cccc(/C=N/NC(=S)NC(C)(C)C)n1 | – | > 100 | – | > 100 | – | > 100 | – | > 100 | – | > 100 | – | > 100 | – | – | > 100 | > 100 | > 100 | – | –
8 | CC(=O)Nc1oc(C)nc1C#N | – | > 100 | – | > 100 | – | – | – | – | – | – | – | – | – | > 100 | > 100 | > 100 | > 100 | – | –
9 | CC[N+]1(C)CCC(O)(/C=C/c2ccc(Cl)c(Cl)c2)C(C(=O)/C=C/c2ccc(Cl)c(Cl)c2)C1 (configuration not stated) | – | – | – | 7.13 | – | 3.67 | – | 9.13 | – | 4.6 | – | 13.9 | – | 4.02 | 6.8 | 3.64 | 8.97 | – | –
10 | O=C(c1ccccc1)c1ccc2c(c1)N=C(c1ccc(Cl)c(Cl)c1)CC(c1ccc3ccccc3c1)N2 (configuration not stated) | – | – | – | > 100 | – | > 100 | – | > 100 | – | – | – | > 100 | – | > 100 | > 100 | > 100 | > 100 | – | –
11 | CN(c1ccccc1)c1c(-c2ccccc2)c(=O)oc2c1ccc1occc12 | – | – | – | – | – | > 100 | – | > 100 | – | > 100 | – | > 100 | – | > 100 | > 100 | > 100 | > 100 | – | –
12 | Cc1ccc(N=Nc2cc(=O)[nH]c(=O)[nH]2)cc1C | – | 24.2 | – | 28.8 | – | 32.6 | – | 27.6 | – | 27.5 | – | 28.7 | – | 24.9 | 43.1 | – | 30.9 | – | –
13 | CCOc1cc(C=Nc2ccc(Oc3ccc(Cl)cc3)c(Cl)c2)ccc1O | – | 42.1 | – | 79.7 | – | 30.3 | – | 54.7 | – | 52.6 | – | 38.8 | – | – | 45.6 | 50.9 | 65.4 | – | –
14 | CC(C)=CCC/C(C)=C/CCC1(C)C2COC(=O)C21 (configuration not stated) | – | > 100 | – | > 100 | – | > 100 | – | – | – | > 100 | – | > 100 | – | > 100 | > 100 | > 100 | – | – | –
15 | COc1cc(/C=C/C=C2\CC(C)C/C(=C\C=C\c3ccc(O)c(OC)c3)C2=O)ccc1O (configuration not stated) | – | 32.4 | – | 28.8 | – | 25.1 | – | 82.3 | – | 31.1 | – | – | – | – | 37.8 | 26.7 | 30.9 | – | –
16 | CCCCCCCCCC[C@@H](O)[C@H]1CC[C@@H]([C@H]2CC[C@H]([C@H](O)CCCCCCCCCC[C@@H]3CC(CC(C)=O)C(=O)O3)O2)O1 (some centres not stated) | 22.8 | > 100 | – | > 100 | 15.2 | 34.6 | – | – | – | 37.5 | 0.483 | > 100 | – | 24.8 | 72.2 | – | > 100 | 19.1 | 22.7
17 | OCC1=C[C@@](COCc2ccccc2)(OCc2ccccc2)[C@@H](OCc2ccccc2)[C@@H]1OCc1ccccc1 | – | 25.4 | – | 60.3 | – | 67.1 | – | – | – | 44.6 | – | 46.7 | – | 18.4 | 70.6 | 39 | > 100 | – | –
18 | CCCCN=C(OC1C=CCCC1)SC (configuration not stated) | – | > 100 | – | > 100 | – | > 100 | – | – | – | > 100 | – | > 100 | – | – | > 100 | > 100 | > 100 | – | –
19 | CC(=O)N/N=C1\NN(C(C)=O)C2(S1)C(=O)Nc1ccccc12 (configuration not stated) | – | > 100 | – | > 100 | – | > 100 | – | > 100 | – | > 100 | – | – | – | – | > 100 | > 100 | > 100 | – | –
20 | CC12CC(=O)NN=C1c1ccccc1C2 (configuration not stated) | – | – | – | > 100 | – | > 100 | – | > 100 | – | > 100 | – | > 100 | – | > 100 | > 100 | > 100 | > 100 | – | –
21 | CCSc1nn(-c2c3ccccc3nc3ccccc23)c(=S)s1 | – | > 100 | – | > 100 | – | > 100 | – | > 100 | – | – | – | > 100 | – | > 100 | > 100 | > 100 | > 100 | – | –
22 | COC(=O)C[C@H]1[C@]2(C)C3=C(C)[C@H](c4ccoc4)CC3O[C@@H]2[C@@H]2OC(=O)[C@]3(C)CCC(=O)[C@@]1(C)[C@@H]23 (some centres not stated) | – | > 100 | – | 67.3 | – | > 100 | – | – | – | > 100 | – | > 100 | – | > 100 | > 100 | > 100 | > 100 | – | –
23 | C=CC(=O)N1C/C(=C\c2ccc(F)cc2)C(=O)/C(=C/c2ccc(F)cc2)C1 | – | – | – | 2.7 | – | 2.17 | – | 0.653 | – | 2.41 | – | 1.2 | – | 0.556 | 1.41 | 0.223 | 2.59 | – | –
24 | CCn1c2ccccc2c2cc(NC(=O)c3c(C)[nH]c(=O)[nH]c3=S)ccc21 | – | 58.1 | – | 68.2 | – | > 100 | – | – | – | > 100 | – | > 100 | – | > 100 | > 100 | > 100 | > 100 | – | –
